The supplement of paper PMC8882468
“And” between values parts separate entries of the source, which are not always exact repeats. Equal values may be shown once.

Assays:
Experiment in all cases: CTG-3D luminescence at 96 h relative to day-0 seeding control (ratio to day 0); higher = more growth / less cytotoxicity; PDxO 3D drug screen (set 2), 96 h, CTG-3D normalised to day-0 seeding control.
HCI-001 = test system: HCI-001 (organoid from a triple-negative breast cancer xenograft)
HCI-008 = test system: HCI-008 (organoid from a HER2-enriched breast cancer xenograft)
HCI-012 = test system: HCI-012 (organoid from a breast cancer xenograft)
MDA-MB-231 = test system: MDA-MB-231

CO[C@H]1C[C@@H]2CC[C@@H](C)[C@@](O)(O2)C(=O)C(=O)N2CCCC[C@H]2C(=O)O[C@H]([C@H](C)C[C@@H]2CC[C@@H](OCCO)[C@H](OC)C2)CC(=O)[C@H](C)/C=C(\C)[C@@H](O)[C@@H](OC)C(=O)[C@H](C)C[C@H](C)/C=C/C=C/C=C/1C [everolimus]
CTG-3D luminescence at 96 h
Details	12.5 pM	0.00025 µM	0.005 µM	0.1 µM	1 µM	10 µM	100 µM	625 fM
HCI-001, days in culture: 365	1.99	1.3	1.52	1.53	1.65	1.34	0.0033	1.24
HCI-001, days in culture: 397	1.23	1.76	1.92	1.59	1.16	1.33	-0.000266	0.913
HCI-001, days in culture: 401	1.21	1.26	1.27	1.07	1.1	1.27	-0.00223	1.41
HCI-008, days in culture: 325	0.998	1.62	1.03	2.85	2.2	1.15	-0.00335	1.28
HCI-008, days in culture: 340	1.1	1.26	1.65	0.457	1.04	–	-0.000653	1.09
HCI-008, days in culture: 354	1.49	0.714	2.05	0.859	0.973	0.697	-0.00248	0.841
HCI-008, days in culture: 382	1.54	1.42	1.04	1.1	0.451	0.406	-0.000828	1.26
HCI-012, days in culture: 214	2.76	1.49	1.21	1.84	1.41	1.69	-0.000454	2.25
HCI-012, days in culture: 243	1.34	2.16	1.46	1.87	1.38	2.11	-0.000228	1.9
HCI-012, days in culture: 256	2.03	1.8	1.71	2.19	1.42	1.38	-0.00358	1.92
HCI-012, days in culture: 284	1.39	1.69	1.18	1.72	0.508	0.327	-0.00211	2.6

MDA-MB-231
Details	CTG-3D luminescence at 96 h
12.5 pM	5.2 and 4.8
0.00025 µM	5.04 and 4.75
0.005 µM	4.83 and 4.91
0.1 µM	4.27 and 4.36
1 µM	3.79 and 3.62
10 µM	3.5 and 2.66
100 µM	-0.00539 and -0.00564
625 fM	5.28 and 4.71
